Experimental data taken from patent US6737383B1, “Herbicidal oxadiazolidines” (priority 1999, dated 2004).

Tests used:
giant foxtail = experiment: Test B pre/postemergence giant foxtail; format: in vivo, Setaria faberii
Summary of the method: (§1)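 Response is a visual 0-to-10 score relative to untreated plants, where 0 means no effect and 10 means complete control, taken twelve to sixteen days after application. Treatments went onto soil at planting and onto foliage of 1- to 4-leaf plants, using a surfactant-containing non-phytotoxic solvent.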

morningglory = experiment: Test B pre/postemergence morningglory; format: in vivo, Ipomoea hederacea
Summary of the method: as §1

purple nutsedge = experiment: Test B pre/postemergence purple nutsedge; format: in vivo, Cyperus rotundus
Summary of the method: as §1

soybean = experiment: Test B pre/postemergence soybean; format: in vivo, Glycine max
Summary of the method: as §1

pigweed = experiment: Test B pre/postemergence pigweed; format: in vivo, Amaranthus retroflexus
Summary of the method: as §1

rape = experiment: Test B pre/postemergence rape; format: in vivo, Brassica napus
Summary of the method: as §1

bedstraw = experiment: Test B pre/postemergence bedstraw; format: in vivo, Galium aparine; details: Preemergence
Summary of the method: as §1

wild oat = experiment: Test B pre/postemergence wild oat; format: in vivo, Avena fatua
Summary of the method: as §1

cocklebur = experiment: Test B pre/postemergence cocklebur; format: in vivo, Xanthium strumarium
Summary of the method: as §1

crabgrass = experiment: Test B pre/postemergence crabgrass; format: in vivo, Digitaria sanguinalis
Summary of the method: as §1

corn = experiment: Test B pre/postemergence corn; format: in vivo, Zea mays
Summary of the method: as §1

sugar beet = experiment: Test B pre/postemergence sugar beet; format: in vivo, Beta vulgaris
Summary of the method: as §1

wheat = experiment: Test B pre/postemergence wheat; format: in vivo, Triticum aestivum
Summary of the method: as §1

blackgrass = experiment: Test B pre/postemergence blackgrass; format: in vivo, Alopecurus myosuroides
Summary of the method: as §1

surinam grass = experiment: Test B pre/postemergence surinam grass; format: in vivo, Brachiaria decumbens
Summary of the method: as §1

velvetleaf = experiment: Test B pre/postemergence velvetleaf; format: in vivo, Abutilon theophrasti
Summary of the method: as §1

[1] = Postemergence, Rate 62 g/ha, scale 0 to 10, 0 is no effect, 10 is complete control
[2] = Postemergence, Rate 125 g/ha, scale of 0 to 10 where 0 is no effect and 10 is complete control
[3] = Preemergence, Rate 125 g/ha, scale of 0 to 10 where 0 is no effect and 10 is complete control
[4] = Preemergence, Rate 250 g/ha, scale 0 (no effect) to 10 (complete control)
[5] = Rate 62 g/ha, Preemergence, scale 0 to 10
[6] = Rate 250 g/ha, Postemergence, scale 0 to 10, 0 is no effect, 10 is complete control
[7] = Rate 500 g/ha, Postemergence, scale 0 to 10, 0 is no effect, 10 is complete control
[8] = Rate 500 g/ha, Preemergence, scale 0 to 10 (0 no effect, 10 complete control)

## C#CCCn1c(=O)on(C(=O)N(c2ccc(F)cc2F)C(C)C)c1=O [Compound 744]
Giant foxtail; [1]
  Plant response rating, Giant foxtail: 6
Giant foxtail; [2]
  Giant foxtail plant response rating: 8
Giant foxtail; [3]
  Plant response rating, Giant foxtail: 9
Giant foxtail; [4]
  Giant foxtail plant response rating: 9
Giant foxtail; [5]
  Giant foxtail plant response rating: 9
Giant foxtail; [6]
  Giant foxtail plant response rating: 8
Giant foxtail; [7]
  Giant foxtail plant response rating: 8
Giant foxtail; [8]
  Giant foxtail plant response rating: 10
morningglory; [1]
  Plant response rating, Morningglory: 2
morningglory; [2]
  Morningglory plant response rating: 2
morningglory; [3]
  Plant response rating, Morningglory: 0
morningglory; [4]
  Morningglory plant response rating: 0
morningglory; [5]
  Morningglory plant response rating: 0
morningglory; [6]
  Morningglory plant response rating: 2
morningglory; [7]
  Morningglory plant response rating: 4
morningglory; [8]
  Morningglory plant response rating: 0
Purple nutsedge; [1]
  Plant response rating, Nutsedge: 0
Purple nutsedge; [3]
  Plant response rating, Nutsedge: 0
Purple nutsedge; [4]
  Nutsedge plant response rating: 5
Purple nutsedge; [6]
  Nutsedge plant response rating: 3
Purple nutsedge; [7]
  Nutsedge plant response rating: 6
Purple nutsedge; [8]
  Nutsedge plant response rating: 7
soybean; [1]
  Plant response rating, Soybean: 2
soybean; [2]
  Soybean plant response rating: 3
soybean; [3]
  Plant response rating, Soybean: 0
soybean; [4]
  Soybean plant response rating: 0
soybean; [5]
  Soybean plant response rating: 0
soybean; [6]
  Soybean plant response rating: 4
soybean; [7]
  Soybean plant response rating: 5
soybean; [8]
  Soybean plant response rating: 0
pigweed; [1]
  Plant response rating, Redroot pigweed: 0
pigweed; [2]
  Redroot pigweed plant response rating: 0
pigweed; [3]
  Plant response rating, Redroot pigweed: 8
pigweed; [4]
  Redroot pigweed plant response rating: 9
pigweed; [5]
  Redroot pigweed plant response rating: 4
pigweed; [6]
  Redroot pigweed plant response rating: 0
pigweed; [7]
  Redroot pigweed plant response rating: 8
pigweed; [8]
  Redroot pigweed plant response rating: 9
rape; [1]
  Plant response rating, Rape: 0
rape; [2]
  Rape plant response rating: 2
rape; [3]
  Plant response rating, Rape: 6
rape; [4]
  Rape plant response rating: 6
rape; [5]
  Rape plant response rating: 4
rape; [6]
  Rape plant response rating: 3
rape; [7]
  Rape plant response rating: 8
rape; [8]
  Rape plant response rating: 9
bedstraw; Rate 125 g/ha, scale of 0 to 10 where 0 is no effect and 10 is complete control
  Plant response rating, Bedstraw: 0
bedstraw; Rate 250 g/ha, scale 0 (no effect) to 10 (complete control)
  Bedstraw plant response rating: 0
bedstraw; Rate 62 g/ha, scale 0 to 10
  Bedstraw plant response rating: 0
bedstraw; Rate 500 g/ha, scale 0 to 10 (0 no effect, 10 complete control)
  Bedstraw plant response rating: 8
Wild oat; [1]
  Plant response rating, Wild oats: 0
Wild oat; [2]
  Wild oats plant response rating: 0
Wild oat; [3]
  Plant response rating, Wild oats: 8
Wild oat; [4]
  Wild oats plant response rating: 9
Wild oat; [5]
  Wild oats plant response rating: 3
Wild oat; [6]
  Wild oats plant response rating: 0
Wild oat; [7]
  Wild oats plant response rating: 2
Wild oat; [8]
  Wild oats plant response rating: 9
cocklebur; [1]
  Plant response rating, Cocklebur: 0
cocklebur; [2]
  Cocklebur plant response rating: 0
cocklebur; [3]
  Plant response rating, Cocklebur: 0
cocklebur; [4]
  Cocklebur plant response rating: 0
cocklebur; [5]
  Cocklebur plant response rating: 0
cocklebur; [6]
  Cocklebur plant response rating: 0
cocklebur; [7]
  Cocklebur plant response rating: 0
cocklebur; [8]
  Cocklebur plant response rating: 0
crabgrass; [1]
  Plant response rating, Crabgrass: 3
crabgrass; [2]
  Crabgrass plant response rating: 4
crabgrass; [3]
  Plant response rating, Crabgrass: 9
crabgrass; [4]
  Crabgrass plant response rating: 9
crabgrass; [5]
  Crabgrass plant response rating: 9
crabgrass; [6]
  Crabgrass plant response rating: 8
crabgrass; [7]
  Crabgrass plant response rating: 9
crabgrass; [8]
  Crabgrass plant response rating: 10
corn; [1]
  Plant response rating, Corn: 0
corn; [2]
  Corn plant response rating: 0
corn; [3]
  Plant response rating, Corn: 0
corn; [4]
  Corn plant response rating: 5
corn; [5]
  Corn plant response rating: 0
corn; [6]
  Corn plant response rating: 3
corn; [7]
  Corn plant response rating: 5
corn; [8]
  Corn plant response rating: 7
Sugar beet; [1]
  Plant response rating, Sugarbeets: 0
Sugar beet; [2]
  Sugarbeets plant response rating: 0
Sugar beet; [3]
  Plant response rating, Sugarbeets: 2
Sugar beet; [4]
  Sugarbeets plant response rating: 7
Sugar beet; [5]
  Sugarbeets plant response rating: 0
Sugar beet; [6]
  Sugarbeets plant response rating: 0
Sugar beet; [7]
  Sugarbeets plant response rating: 5
Sugar beet; [8]
  Sugarbeets plant response rating: 7
wheat; [1]
  Plant response rating, Wheat: 0
wheat; [2]
  Wheat plant response rating: 0
wheat; [3]
  Plant response rating, Wheat: 0
wheat; [4]
  Wheat plant response rating: 3
wheat; [5]
  Wheat plant response rating: 0
wheat; [6]
  Wheat plant response rating: 5
wheat; [7]
  Wheat plant response rating: 7
wheat; [8]
  Wheat plant response rating: 5
blackgrass; [1]
  Plant response rating, Blackgrass: 5
blackgrass; [2]
  Blackgrass plant response rating: 5
blackgrass; [3]
  Plant response rating, Blackgrass: 9
blackgrass; [4]
  Blackgrass plant response rating: 9
blackgrass; [5]
  Blackgrass plant response rating: 6
blackgrass; [6]
  Blackgrass plant response rating: 5
blackgrass; [7]
  Blackgrass plant response rating: 5
blackgrass; [8]
  Blackgrass plant response rating: 9
Surinam grass; [1]
  Plant response rating, B. signalgrass: 0
Surinam grass; [2]
  B. signalgrass plant response rating: 2
Surinam grass; Preemergence, Rate 62 g/ha, scale of 0 to 10 where 0 is no effect and 10 is complete control
  B. signalgrass plant response rating: 5
Surinam grass; [3]
  Plant response rating, B. signalgrass: 8
Surinam grass; [4]
  B. signalgrass plant response rating: 9
Surinam grass; [6]
  B. signalgrass plant response rating: 5
Surinam grass; [7]
  B. signalgrass plant response rating: 6
Surinam grass; [8]
  B. signalgrass plant response rating: 9
velvetleaf; [1]
  Plant response rating, Velvetleaf: 0
velvetleaf; [2]
  Velvetleaf plant response rating: 0
velvetleaf; [3]
  Plant response rating, Velvetleaf: 0
velvetleaf; [4]
  Velvetleaf plant response rating: 0
velvetleaf; [5]
  Velvetleaf plant response rating: 0
velvetleaf; [6]
  Velvetleaf plant response rating: 0
velvetleaf; [7]
  Velvetleaf plant response rating: 2
velvetleaf; [8]
  Velvetleaf plant response rating: 2
